Values quoted from earlier work as cited in patent publication US6420379B1, “Alkynyl-substituted camptothecins and process for their preparation” (Pharmacia & Upjohn S.p.A., priority 1997, dated 2002).

Assays:
[1] = 2 hours after drug addition to human plasma
[2] = biological target: human albumin (Homo sapiens, UniProt P02768); details: presence of biologically relevant levels of human albumin
Chain of human albumin (P02768 25-609): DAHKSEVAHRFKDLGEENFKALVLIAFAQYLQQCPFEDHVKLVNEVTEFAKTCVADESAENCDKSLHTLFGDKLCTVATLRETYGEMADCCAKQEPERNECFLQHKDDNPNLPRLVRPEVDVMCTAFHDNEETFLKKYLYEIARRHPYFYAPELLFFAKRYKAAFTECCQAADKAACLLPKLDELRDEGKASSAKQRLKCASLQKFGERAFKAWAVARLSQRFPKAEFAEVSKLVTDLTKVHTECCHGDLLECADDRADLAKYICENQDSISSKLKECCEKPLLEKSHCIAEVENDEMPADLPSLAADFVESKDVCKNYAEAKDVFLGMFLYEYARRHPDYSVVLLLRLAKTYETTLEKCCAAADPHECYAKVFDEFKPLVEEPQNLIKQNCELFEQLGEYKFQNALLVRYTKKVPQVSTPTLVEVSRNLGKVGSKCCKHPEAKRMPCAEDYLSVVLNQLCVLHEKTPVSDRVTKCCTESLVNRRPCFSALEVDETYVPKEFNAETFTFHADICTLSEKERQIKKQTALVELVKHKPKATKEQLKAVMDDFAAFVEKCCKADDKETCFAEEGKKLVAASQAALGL

SMILES: CC[C@@]1(O)C(=O)OCc2c1cc1n(c2=O)Cc2cc3ccccc3nc2-1 [camptothecin]
- percentage of the drug converted to camptothecin carboxylate [1]: greater than 99%
- half-life of the biologically active form [2]: about 12 min.
